Measurements published in patent publication US11453632B2, “1-phenyl-2-phenylethane derivative” (KAO CORPORATION, priority 2018, dated 2022).

Key:
ERα LBD = target: T1, ERα LBD (Homo sapiens, UniProt P03372); assay: Ability to bind to ERα: pBIND-ERα LBD / GAL4 luciferase reporter in HEK293 cells; type: cell-based; design: key: firefly luciferase / Renilla luciferase luminescence ratio; conditions: negative control 0.00847035
T1 construct: host or cells: HEK293
T1 sequence (P03372 311-547 limits assumed): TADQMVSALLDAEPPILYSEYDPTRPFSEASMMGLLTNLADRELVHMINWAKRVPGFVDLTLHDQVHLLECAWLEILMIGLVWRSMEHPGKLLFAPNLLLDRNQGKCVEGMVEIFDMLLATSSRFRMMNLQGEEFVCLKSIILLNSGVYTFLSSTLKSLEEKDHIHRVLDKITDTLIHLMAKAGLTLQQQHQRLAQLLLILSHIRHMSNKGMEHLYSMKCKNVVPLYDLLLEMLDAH
Protocol: A human kidney-derived cell line HEK293 was cultured (37° C., 5% CO2) in Dulbecco's modified Eagle medium (hereinafter, abbreviated to DMEM) containing 10% (v/v) fetal bovine serum (FBS) and penicillin/streptomycin.
2) Measurement of Binding Activity Against ERs
Specifically, HEK293 cells were inoculated at a cell density of 4.0×10^4 cells/well to a 96-well plate. After 12 hours therefrom, the medium was replaced with a culture solution (DMEM containing 5% (v/v) charcoal-treated serum). The cells were cotransfected with pBIND-ERα for the expression of ERα LBD or pBIND-ERβ for the expression of ERβ LBD (Promega Corp.) and pGL4.35[luc2P/9XGAL4UAS/Hygro](Promega Corp.) using Lipofectamine 2000 (Invitrogen Corp.) according to the protocol attached to the product. 24 hours after transfection, the medium was replaced with a culture solution containing a test sample, followed by culture for another 24 hours. The activity measurement of firefly luciferase (index for the ligand binding activity of ER) and Renilla reniformis luciferase (index for the transfection efficiency of the plasmids) was carried out using Dual-Glo™ Luciferase Assay System (Promega Corp.) according to the attached protocol. The luminescence intensity of the firefly luciferase was divided by the luminescence intensity of the Renilla reniformis luciferase to calculate a relative light unit (RLU).

[1] = tested on: tail skin temperature of ovariectomized rat; assay: Tail skin temperature in ovariectomized (OVX) rat; type: in vivo
Protocol: 8-week-old female Crl:CD (SD) rats were obtained from Charles River Laboratories Japan, Inc. and individually identified by the ear punching method on the receipt date. Then, an acclimatization period was established for 1 week. The animals were raised in a rearing room under a set environment involving a temperature of 22±3° C., a humidity of 50±20%, air ventilation from 13 to 17 times/hour, and a lighting time from 8:00 to 20:00. During the acclimatization period, the rats were allowed to freely ingest solid feed CRF-1 (Oriental Yeast Co., Ltd.). Since the feeding with CRF-1, the rats were allowed to freely ingest customized feed AIN-93G (Oriental Yeast Co., Ltd.) free from components derived from soybeans.
1-2) Sham Surgery and Oophorectomy Surgery (OVX)
On the end date of acclimatization and the following day, the flank cavity was opened under isoflurane anesthesia to harvest the right and left ovaries including fallopian tubes. Other non-OVX rats were subjected to only opening and suture (sham surgery). Immediately thereafter, an antibiotic was subcutaneously administered at a dose of 100 μl/animal. After the surgery, the sham surgery or OVX animals were given customized feed and raised for approximately 1 week.
1-3) Acclimatization to Skin Temperature Measurement Environment […]
Before administration of a test substance and from 12:00 to 3:00 (dark phase) of 3, 5, 7, 14, and 21 days after the start of administration, the rats were placed in restrainers without anesthesia, and skin temperatures were measured at a site 3 cm on the tip side from the tail root using the infrared radiation thermometer. […]
Skin temperatures differed largely among individuals, and the Smirnov-Grubbs test was conducted in order to exclude outliers beforehand. Results of measuring tail skin temperatures and results of measuring uterus weights were statistically analyzed by testing using the Dunnett's test.

[2] = tested on: back skin browning induced by testosterone; assay: Effect on sebum secretion (back skin browning) in testosterone-treated rat; type: in vivo; conditions: testosterone 3 mg/kg/day plus test substance, subcutaneous osmotic pump, 28 days
Excerpt: 12-week-old male Slc:SD (SPF) rats were obtained from Japan SLC, Inc. An acclimatization period was established for 1 week after receipt. During the acclimatization period, the rats were allowed to freely ingest a powder diet (AIN-93G). 2) Implantation of Osmotic Pump After body weight measurement, back hair was shaved under isoflurane (AbbVie GK) inhalation anesthesia, and carprofen was subcutaneously administered to the rats. Then, an incision of approximately 1 cm at the maximum was made on the cranial side in the back. An osmotic minipump Alzet (Muromachi Kikai Co., Ltd.) containing testosterone and compound 17-F or finasteride (Sigma-Aldrich Co. LLC) was subcutaneously implanted. From this osmotic pump, testosterone (3 mg/kg body weight/day) (Sigma-Aldrich Co. LLC) and compound 17-F (0.1 mg/body weight/day or 1 mg/kg body weight/day) or finasteride (0.1 mg/kg body weight/day or 1 mg/kg body weight/day) were continuously administered for 28 days. Since the implantation of the osmotic pump, the rats were allowed to freely ingest customized feed AIN-93G (Oriental Yeast Co., Ltd.) free from components derived from soybeans. 3) Photographing of Skin and Harvesting of Prostate After a lapse of 28 days, body weights were measured, and subsequently, the rats were euthanized by blood letting under isoflurane anesthesia. […] Wet weights were measured. […]

Structure (SMILES): Oc1ccc(CC(C=C(F)F)c2ccc(O)cc2F)c(F)c1 (stereo not drawn) [Compound 17-F, 4,4′-(4,4-difluorobut-3-ene-1,2-diyl)bis(3-fluorophenol)]
- relative light unit (RLU), ligand binding activity ERα (ERα LBD; 0.01 nM): 0.02573
- relative light unit (RLU), ligand binding activity ERα (ERα LBD; 0.1 nM): 0.06025
- relative light unit (RLU), ligand binding activity ERα (ERα LBD; 1 nM): 0.2198
- relative light unit (RLU), ligand binding activity ERα (ERα LBD; 10 nM): 1.873
- relative light unit (RLU), ligand binding activity ERα (ERα LBD; 100 nM): 3.193
- tail skin temperature, raw value and changed temperature from the initial value ([1]; 4, 40, and 400 μg/kg subcutaneous, 3 days after the start of administration, vs negative solvent): confirmed to decrease
- tail skin temperature, drug efficacy ([1]; subcutaneous, 5 days after the start of administration): temporarily disappeared
- tail skin temperature, raw value and changed temperature ([1]; subcutaneous, 7 days after the start of administration): confirmed to decrease again
- skin browning induced by testosterone (sebum secretion, FIG. 3) [2]: markedly inhibited
